From patent publication US5138035A, “Cyclopeptide derivatives usable as selective inhibitors with respect to proteases with active serine” (Centre National de la Recherche Scientifique, priority 1988, dated 1992)
*1 amine or outer side, *2 acyl side, *3 side chain or, on linkers, in order; H or OH if unused. Where a SMILES comes first, the peptide text is derived from it. [ ]: non-standard residue; d: D form. X3 = O=C(c1cc(N[*:1])ccc1CBr)[*:2]

Key:
Format in all cases: biochemical
[1] = target: human urokinase (Homo sapiens, UniProt P00749); experiment: Inactivation of human urokinase (Kitz and Wilson / Hart and O'Brien kinetic methods); conditions: 25° C., 0.025M sodium phosphate, 0.1M NaCl, 0.05% (v/v) Tween 80, pH 7.5, method a and/or b
Excerpt: (§1) The properties of the cyclopeptide derivative of formula (XVI) are checked and in particular its capacity to inactivate bovine trypsin or human urokinase using the methods of Kitz and Wilson (for trypsin and urokinase) and the method of Hart and O'Brien (for trypsin), 1973, published in Biochemistry, 12, pp. 2940-2945.
(§2) The properties of the cyclopeptide derivative of formula (XXIII) are checked and in particular its capacity to inactivate bovine trypsin or human urokinase using the same methods as in Example 2 and working at 25° C. with the 0.025M sodium phosphate buffer, 0.1M NaCl, 0.05% (v/v) Tween 80 and at pH 7.5 for human urokinase.
(§3) The kinetic measurements were carried out at 25° C. in the following buffers: 0.1M Tris, 0.01M CaCl2, pH 7.2 (bovine trypsin); 0.025M sodium phosphate, 0.1M NaCl, 0.05% (v/v) Tween 80, pH 7.5 (human urokinase); 0.05M Tris, 0.038M NaCl, 0.01% (v/v) Tween 80, pH 8.3 (human t-PA), 0.1M Tris (porcine pancreatic elastase), 0.1M sodium phosphate, 25% (v/v) glycerol (human plasmin). […]

[2] = target: elastase (Sus scrofa, UniProt P00772); experiment: Action on elastase (Examples 2 and 4); conditions: species not given
elastase, sequence (P00772 27-266): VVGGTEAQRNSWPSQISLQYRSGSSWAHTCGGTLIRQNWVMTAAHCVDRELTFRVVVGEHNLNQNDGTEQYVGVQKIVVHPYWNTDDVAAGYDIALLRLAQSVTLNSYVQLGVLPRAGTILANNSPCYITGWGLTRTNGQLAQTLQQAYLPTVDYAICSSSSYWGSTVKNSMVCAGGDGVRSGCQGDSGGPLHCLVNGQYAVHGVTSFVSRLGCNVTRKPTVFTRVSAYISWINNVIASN

[3] = target: T1, bovine trypsin (Bos taurus, UniProt P00760); experiment: Inactivation of bovine trypsin (Hart and O'Brien / Kitz and Wilson kinetic methods); conditions: 25° C., 0.1M Tris, 0.01M CaCl2, pH 7.2 (Example 14), method a (Hart and O'Brien) or b (Kitz and Wilson)
T1 sequence (P00760 24-246): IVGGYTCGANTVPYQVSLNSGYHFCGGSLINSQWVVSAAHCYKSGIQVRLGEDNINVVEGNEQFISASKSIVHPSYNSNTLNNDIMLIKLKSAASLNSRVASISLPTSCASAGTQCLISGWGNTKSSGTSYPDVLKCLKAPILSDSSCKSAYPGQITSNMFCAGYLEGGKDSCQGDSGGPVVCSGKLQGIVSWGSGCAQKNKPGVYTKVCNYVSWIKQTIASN
Excerpt: as §1, §2, §3

[4] = target: human t-PA (Homo sapiens, UniProt P00750); experiment: Inactivation of human t-PA; conditions: 25° C., 0.05M Tris, 0.038M NaCl, 0.01% (v/v) Tween 80, pH 8.3, method b
human t-PA, sequence (P00750 36-562): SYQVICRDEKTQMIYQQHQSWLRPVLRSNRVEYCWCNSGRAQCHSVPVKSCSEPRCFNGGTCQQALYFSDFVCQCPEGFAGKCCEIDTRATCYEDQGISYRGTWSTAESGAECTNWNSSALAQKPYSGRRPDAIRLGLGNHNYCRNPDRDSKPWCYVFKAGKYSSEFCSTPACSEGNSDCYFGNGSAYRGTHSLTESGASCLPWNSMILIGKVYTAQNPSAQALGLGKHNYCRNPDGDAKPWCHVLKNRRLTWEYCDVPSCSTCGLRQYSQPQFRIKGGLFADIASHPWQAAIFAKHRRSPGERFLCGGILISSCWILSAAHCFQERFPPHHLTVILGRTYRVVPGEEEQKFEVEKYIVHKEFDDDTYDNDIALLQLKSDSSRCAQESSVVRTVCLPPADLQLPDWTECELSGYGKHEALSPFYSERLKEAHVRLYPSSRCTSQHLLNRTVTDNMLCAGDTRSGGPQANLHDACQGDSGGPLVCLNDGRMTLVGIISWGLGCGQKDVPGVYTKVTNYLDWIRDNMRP
Procedure: The inactivating or inhibiting properties of this derivative with respect to human t-PA are checked at 25° C. in a 0.05M Tris buffer, 0.038M NaCl, 0.01% (v/v) Tween 80 and pH 8.3.

**Q.** What does the source list for `N=C(N)NCCC[C@@H]1NC(=O)CNC(=O)CNC(=O)CNC(=O)CNC(=O)c2cc(ccc2CBr)NC1=O` [Compound (XXIII)] (cyclo(GGGGR[X3]))?
**A.** apparent inactivation constant ki/Ki [1]: 165 M⁻¹ s⁻¹; action on elastase [2]: no action; apparent inactivation constant ki/Ki [3]: 150 M⁻¹ s⁻¹; apparent inactivation constant ki/Ki [4]: 0.3 M⁻¹ s⁻¹
